Values quoted from earlier work as cited in patent publication US20200129637A1, “COMBINATION THERAPY WITH AN ANTI-AXL ANTIBODY-DRUG CONJUGATE” (ADC Therapeutics SA, priority 2017, published 2020).

Columns and labels:
AXL [1] = tested on: AXL
AXL [2] = details: incubation of tumor cells with MEKi
[3] = tested on: chronic lymphocytic leukaemia cells

Row | Compound | Efficiency of the homologous recombination repair machinery (AXL [1]) | Expression of DNA repair genes (AXL [1]) | AXL on the membrane of tumor cells (AXL [2]) | ERCC1 transcription [3]
1 | Nc1nc(Nc2ccc3c(c2)CC[C@@H](N2CCCC2)CC3)nn1-c1cc2c(nn1)-c1ccccc1CCC2 [BGB324] | diminish the efficiency | decrease expression of DNA repair genes | – | –
2 | O=C(NOC[C@H](O)CO)c1ccc(F)c(F)c1Nc1ccc(I)cc1F [PD325901] | – | – | strong accumulation of AXL | –
3 | CN1CCN(Cc2ccc(Nc3ncc(Cl)c(Nc4ccccc4S(=O)(=O)N(C)C)n3)cc2)CC1 [TP0903] | diminish the efficiency | decrease expression of DNA repair genes | – | –
4 | N#CC(=C(/N)Sc1ccccc1N)/C(C#N)=C(\N)Sc1ccccc1N [U0126] | – | – | strong accumulation of AXL | –
5 | Fludarabine | – | – | – | suppress ERCC1 transcription
